In patent US20260226493A1, “HERBICIDE RESISTANT PLANTS” (SYNGENTA CROP PROTECTION AG, priority 2023, published 2026):

Key:
Assay in all cases: BIO3-BIO1 mutant enzyme activity in the presence of herbicide, percentage inhibition (fluorometric DAPA assay)
Assay type in all cases: biochemical
Details in all cases: read-out: percentage inhibition
[1] = biological target: T1, Arabidopsis thaliana BIO3-BIO1 (BioDA) mutants (Arabidopsis thaliana, UniProt B0F481, F348K)
T1 construct: with the predicted N-terminal mitochondrial transit peptide removed; 6xHis-tag (N); thrombin cleavage site (N); made in house; host or cells: E. coli BL21 (DE3) bioA
In short: (§1)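 His-tagged Arabidopsis BIO3-BIO1 mutants, expressed in E. coli and purified by IMAC and SEC, were preincubated at 50 nM with herbicide for 10 min at 20 °C in EPPS pH 8.6 with pyridoxal phosphate. Reaction with 100 μM spermidine and 20 μM KAPA ran 75 min at 20 °C; DAPA was derivatised with o-phthalaldehyde and read at ex 410/em 470 nm. […].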

[2] = biological target: T2, Arabidopsis thaliana BIO3-BIO1 (BioDA) mutants (Arabidopsis thaliana, UniProt B0F481, M419I)
T2 construct: with the predicted N-terminal mitochondrial transit peptide removed; 6xHis-tag (N); thrombin cleavage site (N); made in house; host or cells: E. coli BL21 (DE3) bioA
In short: as §1

[3] = biological target: T3, Arabidopsis thaliana BIO3-BIO1 (BioDA) mutants (Arabidopsis thaliana, UniProt B0F481, S509D)
T3 construct: with the predicted N-terminal mitochondrial transit peptide removed; 6xHis-tag (N); thrombin cleavage site (N); made in house; host or cells: E. coli BL21 (DE3) bioA
In short: as §1

[4] = biological target: T4, Arabidopsis thaliana BIO3-BIO1 (BioDA) mutants (Arabidopsis thaliana, UniProt B0F481, F348N)
T4 construct: with the predicted N-terminal mitochondrial transit peptide removed; 6xHis-tag (N); thrombin cleavage site (N); made in house; host or cells: E. coli BL21 (DE3) bioA
In short: as §1

[5] = biological target: T5, Arabidopsis thaliana BIO3-BIO1 (BioDA) mutants (Arabidopsis thaliana, UniProt B0F481, Q517F)
T5 construct: with the predicted N-terminal mitochondrial transit peptide removed; 6xHis-tag (N); thrombin cleavage site (N); made in house; host or cells: E. coli BL21 (DE3) bioA
In short: as §1

[6] = biological target: T6, Arabidopsis thaliana BIO3-BIO1 (BioDA) mutants (Arabidopsis thaliana, UniProt B0F481, S509G)
T6 construct: with the predicted N-terminal mitochondrial transit peptide removed; 6xHis-tag (N); thrombin cleavage site (N); made in house; host or cells: E. coli BL21 (DE3) bioA
In short: as §1

[7] = biological target: T7, Arabidopsis thaliana BIO3-BIO1 (BioDA) mutants (Arabidopsis thaliana, UniProt B0F481, F348E)
T7 construct: with the predicted N-terminal mitochondrial transit peptide removed; 6xHis-tag (N); thrombin cleavage site (N); made in house; host or cells: E. coli BL21 (DE3) bioA
In short: as §1

[8] = biological target: T8, Arabidopsis thaliana BIO3-BIO1 (BioDA) mutants (Arabidopsis thaliana, UniProt B0F481, W391L)
T8 construct: with the predicted N-terminal mitochondrial transit peptide removed; 6xHis-tag (N); thrombin cleavage site (N); made in house; host or cells: E. coli BL21 (DE3) bioA
In short: as §1

[9] = biological target: T9, Arabidopsis thaliana BIO3-BIO1 (BioDA) mutants (Arabidopsis thaliana, UniProt B0F481, Y511I)
T9 construct: with the predicted N-terminal mitochondrial transit peptide removed; 6xHis-tag (N); thrombin cleavage site (N); made in house; host or cells: E. coli BL21 (DE3) bioA
In short: as §1

[10] = biological target: T10, Arabidopsis thaliana BIO3-BIO1 (BioDA) mutants (Arabidopsis thaliana, UniProt B0F481, Q517T)
T10 construct: with the predicted N-terminal mitochondrial transit peptide removed; 6xHis-tag (N); thrombin cleavage site (N); made in house; host or cells: E. coli BL21 (DE3) bioA
In short: as §1

[11] = biological target: T11, Arabidopsis thaliana BIO3-BIO1 (BioDA) mutants (Arabidopsis thaliana, UniProt B0F481, A609R)
T11 construct: with the predicted N-terminal mitochondrial transit peptide removed; 6xHis-tag (N); thrombin cleavage site (N); made in house; host or cells: E. coli BL21 (DE3) bioA
In short: as §1

[12] = biological target: T12, Arabidopsis thaliana BIO3-BIO1 (BioDA) mutants (Arabidopsis thaliana, UniProt B0F481, S509N)
T12 construct: with the predicted N-terminal mitochondrial transit peptide removed; 6xHis-tag (N); thrombin cleavage site (N); made in house; host or cells: E. coli BL21 (DE3) bioA
In short: as §1

T3 sequence (B0F481 23-833 S509D): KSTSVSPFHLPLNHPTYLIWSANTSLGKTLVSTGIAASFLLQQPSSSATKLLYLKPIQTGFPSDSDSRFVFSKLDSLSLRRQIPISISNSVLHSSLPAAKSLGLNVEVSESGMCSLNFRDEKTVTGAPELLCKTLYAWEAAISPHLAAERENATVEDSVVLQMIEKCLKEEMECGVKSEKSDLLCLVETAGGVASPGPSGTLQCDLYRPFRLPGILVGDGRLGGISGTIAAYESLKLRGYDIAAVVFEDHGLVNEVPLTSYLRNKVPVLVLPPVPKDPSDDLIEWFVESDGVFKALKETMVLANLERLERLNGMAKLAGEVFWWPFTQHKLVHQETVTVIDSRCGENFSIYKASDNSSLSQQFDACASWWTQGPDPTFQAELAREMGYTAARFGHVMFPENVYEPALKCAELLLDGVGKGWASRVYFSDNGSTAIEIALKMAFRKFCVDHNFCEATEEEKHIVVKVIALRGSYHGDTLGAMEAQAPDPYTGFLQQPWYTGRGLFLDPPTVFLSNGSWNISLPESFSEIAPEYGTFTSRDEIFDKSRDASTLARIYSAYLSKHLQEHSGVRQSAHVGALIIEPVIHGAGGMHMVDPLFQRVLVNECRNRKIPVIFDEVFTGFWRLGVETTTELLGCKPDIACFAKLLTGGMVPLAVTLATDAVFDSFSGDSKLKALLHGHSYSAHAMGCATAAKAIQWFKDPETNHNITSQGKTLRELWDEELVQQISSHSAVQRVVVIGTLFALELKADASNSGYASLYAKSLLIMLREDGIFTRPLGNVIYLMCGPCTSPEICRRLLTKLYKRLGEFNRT
T2 sequence (B0F481 23-833 M419I): as the sequence (B0F481 23-833 S509D) above, with M397I, D487S counted along it
T10 sequence (B0F481 23-833 Q517T): as the sequence (B0F481 23-833 S509D) above, with D487S, Q495T counted along it
T9 sequence (B0F481 23-833 Y511I): as the sequence (B0F481 23-833 S509D) above, with D487S, Y489I counted along it
T12 sequence (B0F481 23-833 S509N): as the sequence (B0F481 23-833 S509D) above, with D487N counted along it
T8 sequence (B0F481 23-833 W391L): as the sequence (B0F481 23-833 S509D) above, with W369L, D487S counted along it
T6 sequence (B0F481 23-833 S509G): as the sequence (B0F481 23-833 S509D) above, with D487G counted along it
T11 sequence (B0F481 23-833 A609R): as the sequence (B0F481 23-833 S509D) above, with D487S, A587R counted along it
T5 sequence (B0F481 23-833 Q517F): as the sequence (B0F481 23-833 S509D) above, with D487S, Q495F counted along it
T7 sequence (B0F481 23-833 F348E): as the sequence (B0F481 23-833 S509D) above, with F326E, D487S counted along it
T4 sequence (B0F481 23-833 F348N): as the sequence (B0F481 23-833 S509D) above, with F326N, D487S counted along it
T1 sequence (B0F481 23-833 F348K): as the sequence (B0F481 23-833 S509D) above, with F326K, D487S counted along it

| SMILES | inhibition at 1 µM [1] [%] | inhibition at 1 µM [2] [%] | inhibition at 1 µM [3] [%] | inhibition at 1 µM [4] [%] | inhibition at 1 µM [5] [%] | inhibition at 1 µM [6] [%] | inhibition at 1 µM [7] [%] | inhibition at 1 µM [8] [%] | inhibition at 1 µM [9] [%] | inhibition at 1 µM [10] [%] | inhibition at 1 µM [11] [%] | inhibition at 1 µM [12] [%] | inhibition at 0.2 µM [1] [%] | inhibition at 5 µM [1] [%] | inhibition at 0.2 µM [2] [%] | inhibition at 5 µM [2] [%] | inhibition at 0.2 µM [3] [%] | inhibition at 5 µM [3] [%] | inhibition at 0.2 µM [4] [%] | inhibition at 5 µM [4] [%] | other results |
| --- | --- | --- | --- | --- | --- | --- | --- | --- | --- | --- | --- | --- | --- | --- | --- | --- | --- | --- | --- | --- | --- |
| CCOC(=O)c1nn(-c2ccc3c(c2)OC(F)(F)C(F)(F)O3)c2cccc(C(C)=O)c2c1=O [Compound A, ethyl 5-acetyl-4-oxo-1-(2,2,3,3-tetrafluoro-1,4-benzodioxin-6-yl)cinnoline-3-carboxylate] | 11 | 7 | 9 | 2 | 20 | 36 | 0 | 62 | 17 | 46 | 54 | 43 | – | – | – | – | – | – | – | – | – |
| CCn1c(C)c(-c2ccc(F)cc2F)c(=O)c(C(=O)O)c1-c1ccc(Cl)c(Cl)c1 [Compound C, 2-(3,4-dichlorophenyl)-5-(2,4-difluorophenyl)-1-ethyl-6-methyl-4-oxo-pyridine-3-carboxylic acid] | 11 | 7 | 91 | 2 | 55 | 53 | 57 | 29 | 93 | 47 | 68 | 50 | 0 | 15 | 1 | 53 | 59 | 103 | 0 | 17 | inhibition at 0.2 µM [5]: 29%; inhibition at 5 µM [5]: 85%; inhibition at 0.2 µM [6]: 20%; inhibition at 5 µM [6]: 75%; inhibition at 0.2 µM [7]: 19%; inhibition at 5 µM [7]: 86%; inhibition at 0.2 µM [8]: 23%; inhibition at 5 µM [8]: 33%; inhibition at 0.2 µM [9]: 36%; inhibition at 5 µM [9]: 100%; inhibition at 0.2 µM [10]: 14%; inhibition at 5 µM [10]: 73%; inhibition at 0.2 µM [11]: 63%; inhibition at 5 µM [11]: 71%; inhibition at 0.2 µM [12]: 16%; inhibition at 5 µM [12]: 86% |
| CCn1c(Cn2ccc(C(F)(F)F)n2)cc(=O)c(C(=O)O)c1-c1ccc(Cl)c(Cl)c1 [Compound L, 2-(3,4-dichlorophenyl)-1-ethyl-4-oxo-6-[[3-(trifluoromethyl)pyrazol-1-yl]methyl]pyridine-3-carboxylic acid] | – | – | – | – | – | – | – | – | – | – | – | – | – | – | – | – | – | – | – | – | inhibition at 0.01 µM [1]: 0%; inhibition at 0.075 µM [1]: 2%; inhibition at 0.5 µM [1]: 22%; inhibition at 0.01 µM [2]: 6%; inhibition at 0.075 µM [2]: 1%; inhibition at 0.5 µM [2]: 30%; inhibition at 0.01 µM [4]: 0%; inhibition at 0.075 µM [4]: 0%; inhibition at 0.5 µM [4]: 21%; inhibition at 0.01 µM [7]: 0%; inhibition at 0.075 µM [7]: 0%; inhibition at 0.5 µM [7]: 32%; inhibition at 0.01 µM [11]: 0%; inhibition at 0.075 µM [11]: 51%; inhibition at 0.5 µM [11]: 65% |
| CCn1c(-c2ccc(Cl)c(Cl)c2)c(C(=O)O)c(=O)c2cc(F)ccc21 [Compound M, 2-(3,4-dichlorophenyl)-1-ethyl-6-fluoro-4-oxo-quinoline-3-carboxylic acid] | 1 | 21 | 80 | 1 | 29 | 47 | 25 | 16 | 81 | 39 | 53 | 39 | 0 | 24 | 2 | 20 | 48 | 98 | 0 | 15 | inhibition at 0.2 µM [5]: 0%; inhibition at 5 µM [5]: 70%; inhibition at 0.2 µM [6]: 28%; inhibition at 5 µM [6]: 71%; inhibition at 0.2 µM [7]: 27%; inhibition at 5 µM [7]: 66%; inhibition at 0.2 µM [8]: 18%; inhibition at 5 µM [8]: 43%; inhibition at 0.2 µM [9]: 21%; inhibition at 5 µM [9]: 96%; inhibition at 0.2 µM [10]: 14%; inhibition at 5 µM [10]: 71%; inhibition at 0.2 µM [11]: 52%; inhibition at 5 µM [11]: 88%; inhibition at 0.2 µM [12]: 6%; inhibition at 5 µM [12]: 78% |
